# Counter-ions that a name gives are not always drawn. Like-named read-outs stand apart in the source and are kept apart here.
# Assay: Phase 1a study: pharmacokinetics after oral BID dosing in subjects with advanced solid tumors
# Type: in vivo, human
# Design: Increase in mean: scale not given here
# Settings: for Increase in mean: 600 mg vs preceding dose level (400 mg); for Cmax / half-life / AUC(0-t) / Vd/F / Tmax: human, in vivo, po; for Vd/F: read-out: Vz/F
# Experimental: This example describes a first in human, Phase 1a, multi-center, open-label study to establish the maximum tolerated dose (MTD) and evaluate the safety and tolerability of oral dosing of Form A of the hemi-fumarate salt of the compound of formula (I) (Example 11) in a dose-escalating fashion. Form A of the hemi-fumarate salt was orally administered BID every day with food or within 30 minutes of completing a meal, starting at 25 mg, with doses escalating to 50, 100, 200, 400, 600, and 900 mg BID as safety allows for each 3-week treatment cycle.
# Up to 36 qualified subjects at 3 to 5 US sites, who have specific tumor types of renal cell carcinoma (RCC), gastric cancer (GC), metastatic breast cancer (MBC), small cell lung cancer (SCLC), and other solid tumors (e.g., non-small cell lung cancer, colorectal cancer, carcinoma of unknown primary) with the exception of rapidly progressing neoplasms (e.g., pancreatic cancer, glioblastoma, hepatocellular carcinoma) received Form A of the hemi-fumarate salt. Every effort was made to ensure approximately 50% of all subjects enrolled were subjects with RCC and GC. The starting dose level was 25 mg twice daily (BID), escalating to 50, 100, and 200 mg BID as safety allows, following the Bayesian Optimal Interval (BOIN) design. The safety monitoring committee (SMC) evaluated the dose-limiting toxicities (DLTs) and cumulative safety and PK data at the end of each cohort. Based on the SMC recommendations after a comprehensive review of PK and safety data for 200 mg BID dose, higher dose levels were evaluated, starting with 400 mg BID. The dose escalated to 600 mg and then 900 mg following the BOIN design starting with 1 subject at each escalated dose, until the MTD was reached or the sponsor or SMC declares the dose most appropriate for clinical development. This Phase 1a will be expanded into a Phase 1b/2a study through a protocol amendment and will then assess the dose and tumor type(s) selected in Phase 1a as the most appropriate for further clinical development. Subjects were dosed until unacceptable toxicity, disease progression per immune-related Response Evaluation Criteria in Solid Tumors (iRECIST), subject withdrawal, any other administrative reasons, or after 2 years of treatment, whichever occurs first. Efficacy was assessed via Response Evaluation Criteria in Solid Tumors 1.1 (RECIST 1.1); computed tomography (CT) scans were conducted every 6 weeks. Safety, including occurrence of dose-limiting toxicities (DLTs), pharmacokinetics (PK), and biomarker parameters were also assessed.
# Form A of the hemi-fumarate salt was orally administered BID with food or within 30 minutes of completing a meal, starting at 25 mg, with doses escalating to 50, 100, 200, 400, 600 and 900 mg BID as safety allowed. Up to 24 subjects were enrolled to ensure 12 subjects completed the study at the estimated MTD of Form A of the hemi-fumarate salt. Dosing occurred in 3-week cycles. Subjects spent Cycle 1/Day 1 (C1D1) in the clinic followed by an overnight stay for safety monitoring and PK sampling. Subjects were hospitalized for administration of first 3 doses: CID1 am and pm doses, and Cycle 1/Day 2 (C1D2) am dose; on Days 8, 15, and 21 the am dose was taken in the clinic after the planned PK samples. All other doses were self administered at home.
# Results of Cohorts 1 to 6 the study are detailed in Tables 47-50 below.
# [1] = 25 mg, 25 mg single oral dose, Cycle 1 Day 1, geometric mean, N = 3
# [2] = 50 mg, 50 mg single oral dose, Cycle 1 Day 1, geometric mean, N = 3
# [3] = 200 mg, 200 mg single oral dose, Cycle 1 Day 1, geometric mean, N = 5
compound,measurement,setting,value
"Cc1cc(NC(=O)[C@H](O)c2cc(F)cc(F)c2)ccc1-c1cnc(N)c(C(=O)NC(C)C)c1 [Form A of the hemi-fumarate salt, (R)-2-amino-5-(4-(2-(3,5-difluorophenyl)-2-hydroxyacetamido)-2-methylphenyl)-N-isopropylnicotinamide]",Increase in mean,"single oral dose, Cycle 1 Day 1",3.03
same,Increase in mean,"twice daily oral, Cycle 1 Day 21",1.19
same,Cmax,[1],120 ng/mL
same,half-life,"25 mg, 25 mg single oral dose, Cycle 1 Day 1, geometric mean, N = 3, interpret with caution, terminal elimination phase not well captured, read-out: t1/2 (converted)",8.99 h
same,AUC(0-t),"25 mg, 25 mg single oral dose, Cycle 1 Day 1, geometric mean, N = 3, read-out: AUC0-12",850 ng·h/mL
same,AUC(0-t),"25 mg, 25 mg single oral dose, Cycle 1 Day 1, geometric mean, N = 3, read-out: AUC0-last",850 ng·h/mL
same,Vd/F,[1],147 L
same,Tmax,"25 mg, 25 mg single oral dose, Cycle 1 Day 1, median, N = 3",8 h
same,half-life,"25 mg, 25 mg twice daily oral, Cycle 1 Day 21, N = 3, interpret with caution, terminal elimination phase not well captured, read-out: t1/2 (converted)",16 h
same,Vd/F,"25 mg, 25 mg twice daily oral, Cycle 1 Day 21, N = 3",150 L
same,Cmax,"25 mg, 25 mg twice daily oral, Cycle 1 Day 21, geometric mean, N = 3",537 ng/mL
same,AUC(0-t),"25 mg, 25 mg twice daily oral, Cycle 1 Day 21, geometric mean, N = 3, read-out: AUC0-last",4110 ng·h/mL
same,half-life,"25 mg, 25 mg twice daily oral, Cycle 1 Day 21, geometric mean, N = 3, read-out: t1/2, eff (converted)",35.8 h
same,Tmax,"25 mg, 25 mg twice daily oral, Cycle 1 Day 21, median, N = 3",2 h
same,Cmax,[2],243 ng/mL
same,half-life,"50 mg, 50 mg single oral dose, Cycle 1 Day 1, geometric mean, N = 3, interpret with caution, terminal elimination phase not well captured, read-out: t1/2 (converted)",11.1 h
same,AUC(0-t),"50 mg, 50 mg single oral dose, Cycle 1 Day 1, geometric mean, N = 3, read-out: AUC0-12",2090 ng·h/mL
same,AUC(0-t),"50 mg, 50 mg single oral dose, Cycle 1 Day 1, geometric mean, N = 3, read-out: AUC0-last",2090 ng·h/mL
same,Vd/F,[2],141 L
same,Tmax,"50 mg, 50 mg single oral dose, Cycle 1 Day 1, median, N = 3",4 h
same,Cmax,"50 mg, 50 mg twice daily oral, Cycle 1 Day 21, geometric mean, N = 3",978 ng/mL
same,AUC(0-t),"50 mg, 50 mg twice daily oral, Cycle 1 Day 21, geometric mean, N = 3, read-out: AUC0-last",9070 ng·h/mL
same,half-life,"50 mg, 50 mg twice daily oral, Cycle 1 Day 21, geometric mean, N = 3, read-out: t1/2, eff (converted)",31.5 h
same,Tmax,"50 mg, 50 mg twice daily oral, Cycle 1 Day 21, median, N = 3",2 h
same,Cmax,"100 mg, 100 mg single oral dose, Cycle 1 Day 1, geometric mean, N = 4",380 ng/mL
same,AUC(0-t),"100 mg, 100 mg single oral dose, Cycle 1 Day 1, geometric mean, N = 4, read-out: AUC0-12",2800 ng·h/mL
same,AUC(0-t),"100 mg, 100 mg single oral dose, Cycle 1 Day 1, geometric mean, N = 4, read-out: AUC0-last",1930 ng·h/mL
same,Tmax,"100 mg, 100 mg single oral dose, Cycle 1 Day 1, median, N = 4",7 h
same,half-life,"100 mg, 100 mg twice daily oral, Cycle 1 Day 21, N = 3, interpret with caution, terminal elimination phase not well captured, read-out: t1/2 (converted)",37.6 h
same,Vd/F,"100 mg, 100 mg twice daily oral, Cycle 1 Day 21, N = 3",383 L
same,Cmax,"100 mg, 100 mg twice daily oral, Cycle 1 Day 21, geometric mean, N = 3",1310 ng/mL
same,AUC(0-t),"100 mg, 100 mg twice daily oral, Cycle 1 Day 21, geometric mean, N = 3, read-out: AUC0-last",11700 ng·h/mL
same,half-life,"100 mg, 100 mg twice daily oral, Cycle 1 Day 21, geometric mean, N = 3, read-out: t1/2, eff (converted)",30.1 h
same,Tmax,"100 mg, 100 mg twice daily oral, Cycle 1 Day 21, median, N = 3",4 h
same,Cmax,[3],839 ng/mL
same,half-life,"200 mg, 200 mg single oral dose, Cycle 1 Day 1, geometric mean, N = 5, interpret with caution, terminal elimination phase not well captured, read-out: t1/2 (converted)",20.6 h
same,AUC(0-t),"200 mg, 200 mg single oral dose, Cycle 1 Day 1, geometric mean, N = 5, read-out: AUC0-12",5800 ng·h/mL
same,AUC(0-t),"200 mg, 200 mg single oral dose, Cycle 1 Day 1, geometric mean, N = 5, read-out: AUC0-last",5800 ng·h/mL
same,Vd/F,[3],331 L
same,Tmax,"200 mg, 200 mg single oral dose, Cycle 1 Day 1, median, N = 5",4 h
same,half-life,"200 mg, 200 mg twice daily oral, Cycle 1 Day 21, N = 4, interpret with caution, terminal elimination phase not well captured, read-out: t1/2 (converted)",7.71 h
same,Vd/F,"200 mg, 200 mg twice daily oral, Cycle 1 Day 21, N = 4",79.4 L
same,Cmax,"200 mg, 200 mg twice daily oral, Cycle 1 Day 21, geometric mean, N = 4",2990 ng/mL
same,AUC(0-t),"200 mg, 200 mg twice daily oral, Cycle 1 Day 21, geometric mean, N = 4, read-out: AUC0-last",27200 ng·h/mL
same,half-life,"200 mg, 200 mg twice daily oral, Cycle 1 Day 21, geometric mean, N = 4, read-out: t1/2, eff (converted)",35.9 h

# — patent US20260265199A1, “CRYSTALLINE FORMS OF (R)-2-AMINO-5-(4-(2-(3,5-DIFLUOROPHENYL)-2-HYDROXYACETAMIDO)-2-METHYLPHENYL)-N-ISOPROPYLNICOTINAMIDE AND METHODS FOR USING THE SAME” (HIBERCELL, INC., priority 2023, published 2026)
